# Test results reported in patent publication US12642771B2, “Compositions comprising PGI2-receptor agonists and processes for the preparation thereof” (Arena Pharmaceuticals, Inc., priority 2017, dated 2026).
# How the values were obtained:
# [1] = Example 8: 22-week randomized, double-blind, placebo-controlled study (PVR, 6MWD, plasma levels, adverse events); type: in vivo, human
# Experimental: A 22-week randomized, double-blind, placebo-controlled study with a dose titration period of up to 9 weeks was conducted. Sixty-one patients were randomized 2:1 Compound 1 to placebo. Right Heart Catheterization (RHC) measurements were obtained prior to study Day 1 of the dose titration period and at Week 22. The following values were obtained and recorded: pulmonary artery pressure (PAP) (systolic, diastolic, and mean), heart rate (HR), right atrial pressure (RAP), pulmonary capillary wedge pressure (PCWP) right ventricular pressure (RVP) and cardiac output (CO), pulmonary vascular resistance (PVR), arterial and mixed venous oxygen saturation […] (if applicable). Systemic vascular resistance (SVR) was estimated from blood pressure measurements. The 6-minute walk test (6MWD) was conducted according to the modified guidelines issued by the American Thoracic Society. See Am J Respir Crit Care Med 166:111-117, 2002.
# Primary efficacy endpoints for the study were: a) change from baseline in PVR after 22 weeks of treatment, and b) change from baseline in 6 MWD after 22 weeks of treatment.
# Compound 1 was administered as a capsule in 0.01, 0.02, 0.03, 0.04, and 0.10 mg dose strengths. The formulation was supplied as a liquid-filled, size 4, hard-gelatin capsule containing Compound 1, polyoxyl 40 hydrogenated castor oil (Kolliphor® RH40) NF, butylated hydroxytoluene (BHT)NF, and colloidal silicon dioxide NF.
# The starting dose of Compound 1 was 0.01 mg twice daily. The dose of Compound 1 was titrated according to patient tolerability. If the initial dose was tolerated (0.01 mg twice daily), then the dose was increased once a week in the following fashion: 0.02 mg twice daily, 0.03 mg twice daily, 0.04 mg twice daily, 0.06 mg twice daily, 0.08 mg, 0.1 mg twice daily, 0.2 mg twice daily and 0.3 mg twice daily. The dose was optionally escalated to a possible maximum total daily dose of 0.6 mg (0.3 mg twice daily), pending tolerability.
# [2] = Release (dissolution) profile of capsules, USP Apparatus 2 (paddle) at 50 rpm, 500 mL aqueous sodium phosphate 0.05 M, pH 6.8; type: physicochemical; conditions: for Release rate (percentage of Compound 1 released): Table 3b, capsule 0.04 mg Compound 1, Poloxamer 188:food grade GMS 50:50
# Text: USP Apparatus 2 (Paddle Apparatus) is described, for example, in the United States Pharmacopeial Convention, Feb. 1, 2012, Chapter <711> (“Dissolution”), incorporated by reference herein in its entirety. See http://www.usp.org/sites/default/files/usp_pdf/EN/USPNF/revisions/m99470-gc_711.pdf. The assembly from Apparatus 1 is used, except that a paddle formed from a blade and a shaft is used as the stirring element. The shaft is positioned so that its axis is not more than 2 mm from the vertical axis of the vessel at any point and rotates smoothly without significant wobble that could affect the results. The vertical center line of the blade passes through the axis of the shaft so that the bottom of the blade is flush with the bottom of the shaft. A distance of 25±2 mm between the bottom of the blade and the inside bottom of the vessel is maintained during the test. The metallic or suitably inert, rigid blade and shaft comprise a single entity. A suitable two-part detachable design may be used provided the assembly remains firmly engaged during the test. The paddle blade and shaft may be coated with a suitable coating so as to make them inert. The dosage unit is allowed to sink to the bottom of the vessel before rotation of the blade is started. A small, loose piece of nonreactive material, such as not more than a few turns of wire helix, may be attached to dosage units that would otherwise float. Other validated sinker devices may be used.
# Unless otherwise specified, the release profiles for capsules were measured using USP Apparatus 2 (paddle).
# All release profiles disclosed in Tables 3c-3p were measured with USP Apparatus 2 (paddle) at 50 rpm in 500 mL of aqueous sodium phosphate at a concentration of 0.05 M (pH=6.8). The values in a given table relate to capsules obtained from the same batch. Values shown represent mean values over a number of dissolution tests (“n” in each table) in each case.
smiles,measurement,setting,value
"O=C(O)COC[C@H]1CC[C@H](COC(=O)N(c2ccccc2)c2ccc(Cl)cc2)CC1 [Compound 1, 2-(((1r,4r)-4-(((4-chlorophenyl)(phenyl)carbamoyloxy)methyl)cyclohexyl)methoxy)acetic acid]",Adverse events,[1]; 22-week study,consistent with other prostacyclin treatments
same,6-minute walk distance (6MWD),[1]; after 22 weeks of treatment,numerical improvement
same,change from baseline in pulmonary vascular resistance (PVR) compared to placebo,"[1]; after 22 weeks of treatment, capsule twice daily, titrated up to 0.3 mg twice daily",statistically significant change from baseline
same,mean pre-dose and 4-hours post-dose plasma levels,"[1]; immediate-release capsule twice daily, titrated, patients",appear similar to those previously observed in healthy human subjects
same,correlation of 4 hour post-dose plasma concentrations with percent change from baseline in PVR and 6MWD,[1]; in vivo,strong and positive correlation
same,change of release rate after storage,"[2]; 0.04 mg Compound 1 in Gelucire 50/13, storage at 40° C. and 75% RH for two weeks (FIG. 5)",rapid increase in release rate
same,Release rate (percentage of Compound 1 released),"[2]; 1 wk storage (40° C.), 30 min",11.1%
same,Release rate (percentage of Compound 1 released),"[2]; 1 wk storage (40° C.), 60 min",22.6%
same,Release rate (percentage of Compound 1 released),"[2]; 1 wk storage (40° C.), 120 min",40.1%
same,Release rate (percentage of Compound 1 released),"[2]; 1 wk storage (40° C.), 180 min",59.7%
same,Release rate (percentage of Compound 1 released),"[2]; 1 wk storage (40° C.), 240 min",71.8%
same,Release rate (percentage of Compound 1 released),"[2]; 1 wk storage (40° C.), 360 min",88.4%
same,Release rate (percentage of Compound 1 released),"[2]; 1 wk storage (40° C.), 480 min",92.2%
same,Release rate (percentage of Compound 1 released),"[2]; 1 wk storage (40° C.), 600 min",96.7%
same,Release rate (percentage of Compound 1 released),"[2]; 1 wk storage (40° C.), 720 min",95.3%
same,Release rate (percentage of Compound 1 released),"[2]; 1 wk storage (40° C.), 735 min",96.1%
same,Release rate (percentage of Compound 1 released),"[2]; 2 wks storage (40° C.), 30 min",10.8%
same,Release rate (percentage of Compound 1 released),"[2]; 2 wks storage (40° C.), 60 min",18.3%
same,Release rate (percentage of Compound 1 released),"[2]; 2 wks storage (40° C.), 120 min",36.8%
same,Release rate (percentage of Compound 1 released),"[2]; 2 wks storage (40° C.), 180 min",52.9%
same,Release rate (percentage of Compound 1 released),"[2]; 2 wks storage (40° C.), 240 min",67.4%
same,Release rate (percentage of Compound 1 released),"[2]; 2 wks storage (40° C.), 360 min",83.3%
same,Release rate (percentage of Compound 1 released),"[2]; 2 wks storage (40° C.), 480 min",90.3%
same,Release rate (percentage of Compound 1 released),"[2]; 2 wks storage (40° C.), 600 min",93.8%
same,Release rate (percentage of Compound 1 released),"[2]; 2 wks storage (40° C.), 720 min",93.7%
same,Release rate (percentage of Compound 1 released),"[2]; 2 wks storage (40° C.), 735 min",94.3%
same,Release rate (percentage of Compound 1 released),"[2]; 4 wks storage (40° C.), 30 min",7.3%
same,Release rate (percentage of Compound 1 released),"[2]; 4 wks storage (40° C.), 60 min",17.7%
same,Release rate (percentage of Compound 1 released),"[2]; 4 wks storage (40° C.), 120 min",37.4%
same,Release rate (percentage of Compound 1 released),"[2]; 4 wks storage (40° C.), 180 min",54.6%
same,Release rate (percentage of Compound 1 released),"[2]; 4 wks storage (40° C.), 240 min",70.3%
same,Release rate (percentage of Compound 1 released),"[2]; 4 wks storage (40° C.), 360 min",87.5%
